Results on 20 compounds are retold here after ChEMBL document CHEMBL5537164, “Discovery of Potent, Orally Bioavailable, Tricyclic NLRP3 Inhibitors” (J Med Chem, 2024).

In brackets after ≈: the same amount, converted by molar mass.

Series [1] in a line: Equilibrium solubility of compound in DMSO at pH 6.8 by shake flask method. In kind it is physicochemical.
A short description of series [2]: Metabolic stability in human liver microsomes assessed as intrinsic clearance. The format is ADME, Microsome. As to conditions: read-out: CLH. (Liver microsomes are a subcellular fraction often used to study metabolism.)
The nature of series [3]: Apparent permeability from apical to basolateral side in MDCK cells by high-throughput assay. In kind it is ADME, cell-based, Canis lupus familiaris. Conditions: dog.
The nature of series [4]: Lipophilicity, logD of compound at pH 7.4. In kind it is physicochemical. As to conditions: buffer.
A short description of series [5]: Metabolic stability in mouse liver microsomes assessed as intrinsic clearance. Conditions: read-out: CLH. The format is ADME, Microsome.
The nature of series [6]: In vivo inhibition of NLRP3 in LPS/ATP-induced C57BL/6 mouse model of acute peritonitis assessed as reduction in IL-1beta level at 50 mg/kg, po preadministered with compound for 1 hrs followed by LPS stimulation for 2 hrs and measured 15 mins after ATP addition by ELISA relative to control. Conditions: time 3.25 hrs. In kind it is functional. On the technique in general: In an ELISA, binding on a coated surface is turned into a signal by an enzyme label.

The nature of series [7]: Drug concentration in blood of C57BL/6 mouse model of acute peritonitis at 50 mg/kg, po preadministered with compound for 1 hrs followed by LPS stimulation for 2 hrs and measured 15 mins after ATP addition by HPLC-MS/MS analysis. In kind it is ADME, organism-based. Conditions: whole blood, read-out: Ct.
For series [8], the system named is Cytochrome P450. Nature of the series: Drug metabolism in human liver microsomes assessed as CYP450-driven thiophene oxidation mediated metabolite formation by LC-MS/MS analysis. In kind it is ADME, Microsome.
Series [9] is described as follows: Clearance in C57BL/6 mouse at 1 mg/kg, iv measured after 24 hrs by LC-MS/MS analysis. The format is ADME, organism-based. Conditions: in vivo.
Series [10] in a line: Oral bioavailability in C57BL/6 mouse measured after 24 hrs by LC-MS/MS analysis. The format is ADME, organism-based. As to conditions: in vivo.
Series [11] is described as follows: AUC (0 to infinity) in C57BL/6 mouse at 3 mg/kg, po measured after 24 hrs by LC-MS/MS analysis. In kind it is ADME, organism-based. As to conditions: in vivo.
Series [12] concerns the target Voltage-gated inwardly rectifying potassium channel KCNH2 (Homo sapiens, UniProt Q12809). The experiment in a line: Displacement of [3H]-dofetilide from human ERG. The format is toxicity. On the technique in general: Loss of bound radioactivity is the signal in a displacement assay; it reports binding, not function.
A short description of series [13]: Metabolic stability in rat liver microsomes assessed as intrinsic clearance. Conditions: read-out: CLH. The format is ADME, Microsome.
In series [14] the target is Nuclear factor NF-kappa-B complex (Homo sapiens, UniProt P19838+Q00653+Q04206). The experiment in a line: Inhibition of NF-kappaB in PMA-differentiated human THP-1 cells assessed as reduction in TNF-alpha release preincubated with compound for 1 hrs followed by Pam3CSK4 stimulation and measured after 3 hrs by HTRF assay. The format is cell-based.
Nuclear factor NF-kappa-B complex, sequence (P19838 1-433 limits assumed): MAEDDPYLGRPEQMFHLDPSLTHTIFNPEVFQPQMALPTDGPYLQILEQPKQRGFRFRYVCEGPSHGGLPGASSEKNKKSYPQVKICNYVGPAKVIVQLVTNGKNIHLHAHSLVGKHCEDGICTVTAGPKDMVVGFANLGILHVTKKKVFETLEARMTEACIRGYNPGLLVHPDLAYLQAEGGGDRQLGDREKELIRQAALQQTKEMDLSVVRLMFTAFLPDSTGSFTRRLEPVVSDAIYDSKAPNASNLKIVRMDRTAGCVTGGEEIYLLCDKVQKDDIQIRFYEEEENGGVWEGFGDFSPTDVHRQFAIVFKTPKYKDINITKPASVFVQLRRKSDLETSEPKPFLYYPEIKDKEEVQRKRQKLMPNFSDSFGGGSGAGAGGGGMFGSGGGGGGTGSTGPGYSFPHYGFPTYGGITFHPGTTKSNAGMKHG
Nuclear factor NF-kappa-B complex, sequence (Q00653 1-454 limits assumed): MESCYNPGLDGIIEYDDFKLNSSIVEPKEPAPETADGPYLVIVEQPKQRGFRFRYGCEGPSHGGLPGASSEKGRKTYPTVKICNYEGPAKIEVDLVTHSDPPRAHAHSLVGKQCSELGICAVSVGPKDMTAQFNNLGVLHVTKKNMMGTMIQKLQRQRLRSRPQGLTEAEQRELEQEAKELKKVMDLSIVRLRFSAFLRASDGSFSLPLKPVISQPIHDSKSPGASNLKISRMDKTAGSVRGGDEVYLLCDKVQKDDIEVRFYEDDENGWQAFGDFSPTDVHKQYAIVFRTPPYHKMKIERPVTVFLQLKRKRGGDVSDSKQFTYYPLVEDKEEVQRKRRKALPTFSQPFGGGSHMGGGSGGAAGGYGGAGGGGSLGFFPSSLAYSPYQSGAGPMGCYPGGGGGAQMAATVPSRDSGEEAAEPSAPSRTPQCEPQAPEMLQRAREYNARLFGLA
Nuclear factor NF-kappa-B complex, sequence (Q04206 whole entry): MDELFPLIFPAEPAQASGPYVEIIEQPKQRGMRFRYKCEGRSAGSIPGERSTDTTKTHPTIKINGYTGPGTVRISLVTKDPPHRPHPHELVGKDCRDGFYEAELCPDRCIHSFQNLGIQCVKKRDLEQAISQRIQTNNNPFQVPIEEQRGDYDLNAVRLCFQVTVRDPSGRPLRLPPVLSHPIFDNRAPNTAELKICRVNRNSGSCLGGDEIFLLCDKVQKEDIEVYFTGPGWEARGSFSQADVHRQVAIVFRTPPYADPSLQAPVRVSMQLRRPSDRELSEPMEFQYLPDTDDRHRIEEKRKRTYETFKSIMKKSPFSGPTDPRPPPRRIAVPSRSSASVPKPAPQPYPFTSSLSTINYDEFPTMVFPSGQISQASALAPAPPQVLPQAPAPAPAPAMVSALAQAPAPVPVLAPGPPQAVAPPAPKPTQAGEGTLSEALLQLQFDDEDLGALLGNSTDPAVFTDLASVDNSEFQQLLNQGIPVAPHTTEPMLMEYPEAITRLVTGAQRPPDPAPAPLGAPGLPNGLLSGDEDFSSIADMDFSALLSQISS

Voltage-gated inwardly rectifying potassium channel KCNH2, sequence (Q12809 whole entry): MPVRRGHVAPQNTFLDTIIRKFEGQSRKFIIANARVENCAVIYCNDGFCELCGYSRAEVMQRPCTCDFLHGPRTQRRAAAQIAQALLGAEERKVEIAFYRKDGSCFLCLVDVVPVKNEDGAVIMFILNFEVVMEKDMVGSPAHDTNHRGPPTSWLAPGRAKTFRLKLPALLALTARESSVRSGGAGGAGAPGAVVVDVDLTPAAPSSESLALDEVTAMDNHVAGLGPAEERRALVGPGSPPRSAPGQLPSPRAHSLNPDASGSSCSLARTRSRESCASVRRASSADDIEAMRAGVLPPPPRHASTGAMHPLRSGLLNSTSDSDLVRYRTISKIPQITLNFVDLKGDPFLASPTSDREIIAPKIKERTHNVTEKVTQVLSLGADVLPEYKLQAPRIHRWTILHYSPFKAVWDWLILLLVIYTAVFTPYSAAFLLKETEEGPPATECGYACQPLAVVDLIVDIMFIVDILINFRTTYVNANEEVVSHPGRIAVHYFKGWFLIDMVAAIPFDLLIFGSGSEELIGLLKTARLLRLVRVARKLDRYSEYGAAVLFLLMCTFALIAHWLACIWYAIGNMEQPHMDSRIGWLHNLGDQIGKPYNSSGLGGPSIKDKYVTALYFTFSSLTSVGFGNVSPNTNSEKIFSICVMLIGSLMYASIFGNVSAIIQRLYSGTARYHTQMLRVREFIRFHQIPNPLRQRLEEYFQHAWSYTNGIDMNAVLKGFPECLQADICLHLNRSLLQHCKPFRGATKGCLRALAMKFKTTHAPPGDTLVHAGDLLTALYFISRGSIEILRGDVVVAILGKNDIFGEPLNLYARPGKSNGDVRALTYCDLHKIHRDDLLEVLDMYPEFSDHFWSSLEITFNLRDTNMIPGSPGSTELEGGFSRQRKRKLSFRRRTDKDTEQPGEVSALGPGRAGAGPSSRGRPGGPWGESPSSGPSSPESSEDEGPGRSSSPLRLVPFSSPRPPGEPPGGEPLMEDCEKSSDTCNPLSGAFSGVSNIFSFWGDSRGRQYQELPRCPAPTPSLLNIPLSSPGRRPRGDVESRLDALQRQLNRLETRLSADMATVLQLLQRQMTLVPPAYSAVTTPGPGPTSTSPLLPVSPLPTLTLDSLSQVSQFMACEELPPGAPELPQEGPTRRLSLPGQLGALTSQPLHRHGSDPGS

As usually defined, the solubility is the concentration that dissolves in the medium under given conditions. Lower therefore signals a poorly soluble substance. The term Papp A→B denotes the apparent permeability from the apical to the basolateral side of a cell layer. On to `CCc1nn(CC(=O)NC)c(=O)c2cc3sccc3n12`, for which the solubility in series [1] is 128 µM (≈ 37.2 µg/mL). In addition, the microsomal CLint in series [2] came out at 54 µL/min/mg. In addition, the Papp A→B in series [3] was 26 ×10⁻⁶ cm/s.

For orientation: logD means lipophilicity at a set pH, counting ionised and neutral species. The low end stands for a more hydrophilic compound, the high end for a more lipophilic compound. The term inhibition in vivo denotes the share of the control response that was lost under treatment. `CC(C)c1nn(CC(=O)N[C@@H]2CCCN(C)C2)c(=O)c2cc3scnc3n12`: in series [1], the solubility was over 1000 µM. This compound had a logD in series [4] of 1.1. The microsomal CLint was 27 µL/min/mg in [2] and 231 µL/min/mg in [5]. Also, the inhibition in vivo at 50 mg/kg in series [6] was 40%. Further, the concentration at 3.25 h in series [7] came out at 113 nM.

Take `CC(C)c1nn(CC(=O)NC2CCOCC2)c(=O)c2cc3sc(Cl)cc3n12`: in series [1], the solubility stood at 3 µM (≈ 1.23 µg/mL). The logD in series [4] worked out at 3. Further, the microsomal CLint in [2] amounted to 30 µL/min/mg; in [5], 129 µL/min/mg.

Regarding `CC(C)c1nn(CC(=O)Nc2cccnc2)c(=O)c2cc3sccc3n12`, the solubility in [1] is 19 µM (≈ 6.98 µg/mL). This compound also gave a logD in series [4] of 3.1. Also, the microsomal CLint was determined as 144 µL/min/mg in series [2] and 490 µL/min/mg in series [5]. Besides, the Drug metabolism entry in [8] is “Metabolite_Detected”.

For `CCc1nn(CC(=O)Nc2cccnc2)c(=O)c2cc3sccc3n12`, the solubility in series [1] came to 21 µM (≈ 7.42 µg/mL). In series [4], this compound yielded a logD of 2.6. Also, the microsomal CLint in series [2] was 63 µL/min/mg; in series [5], 412 µL/min/mg. Also, the Papp A→B in series [3] worked out at 27 ×10⁻⁶ cm/s.

In series [1], `CC(C)(O)c1nn(CC(=O)N[C@H]2C[C@@](C)(O)C2)c(=O)c2cc3sc(Cl)cc3n12` had a solubility of 36 µM (≈ 15.3 µg/mL). This compound also came in with a logD in series [4] of 2.8. Further, the microsomal CLint was under 10 µL/min/mg in series [2] and 33 µL/min/mg in series [5]. In addition, the inhibition in vivo at 50 mg/kg in series [6] came out at 30%. The concentration at 3.25 h in series [7] amounted to 65 nM.

Compound `CCCc1nn(CC(=O)Nc2cccnc2)c(=O)c2cc3sccc3n12` displayed a solubility in series [1] of 3 µM (≈ 1.1 µg/mL). For the same compound, the logD in [4] was found to be 3. For the same compound, the microsomal CLint in series [2] was 101 µL/min/mg; in series [5], over 1000 µL/min/mg.

The term clearance denotes the volume of plasma or blood freed of the substance per unit of time. A higher clearance goes with a high capacity for elimination. By bioavailability is commonly meant dose-corrected exposure relative to a reference, in per cent. Read a high bioavailability as much systemic uptake. By AUC(0-inf) is commonly meant total exposure, with the tail of the curve extrapolated. Low values mean low exposure, high ones high exposure. The term IC50 denotes the midpoint of a concentration-inhibition curve. As to `CC(C)c1nn(CC(=O)N[C@@H]2CCCN(C)C2)c(=O)c2cc3sc(Cl)cc3n12`, in series [1], the solubility was over 1000 µM. This compound gave a logD in [4] of 2.4. The microsomal CLint amounted to 59 µL/min/mg in series [2] and 364 µL/min/mg in series [5]. Further, in series [3], the apical-to-basolateral permeability (Papp A→B) was 15 ×10⁻⁶ cm/s. In addition, the clearance in [9] was found to be 58 mL/min/kg. In series [10], this compound yielded a bioavailability of 7.8%. The AUC(0-inf) in series [11] turned out to be 0.163 µM·h. The compound also yielded an IC50 in series [12] of over 30 µM.

In the case of `O=C(Cn1nc(C2CC2)n2c(cc3sccc32)c1=O)Nc1cccnc1`, the concentration in solution in series [1] (solubility) was 26 µM (≈ 9.5 µg/mL). Further, the logD in series [4] was found to be 2.7. The microsomal CLint turned out to be 76 µL/min/mg in [2] and 464 µL/min/mg in series [5].

Regarding `CC(C)c1nn(CC(=O)N[C@@H]2CCCNC2)c(=O)c2cc3sc(Cl)cc3n12`, the solubility in [1] is over 1000 µM. The logD in [4] was determined as 1. For the same compound, the microsomal CLint in series [2] was 12 µL/min/mg; in series [5] it was 55 µL/min/mg. In addition, in series [3], the Papp A→B was 3 ×10⁻⁶ cm/s. The compound further showed a clearance in series [9] of 55.7 mL/min/kg. This compound gave a bioavailability in [10] of 27.6%. The AUC(0-inf) in series [11] stood at 0.691 µM·h. The compound further returned an IC50 in [12] of 26 µM.

For the compound `CCc1nn(CC(=O)Nc2cccc(O)c2)c(=O)c2cc3sccc3n12`, in series [1], the concentration in solution (solubility) came to 4 µM (≈ 1.47 µg/mL). Further, in [2], the microsomal CLint stood at 405 µL/min/mg. Moreover, the Papp A→B in series [3] amounted to 5.7 ×10⁻⁶ cm/s.

In [1], `O=C(Cn1ncn2c(cc3sccc32)c1=O)Nc1cccnc1` returned a solubility of 91 µM (≈ 29.6 µg/mL). Further, in series [4], the logD stood at 1.9. In addition, the microsomal CLint in series [2] is under 10 µL/min/mg; in series [5] it was 48 µL/min/mg.

For the compound `CCc1nn(CC(=O)NC2CCCNC2)c(=O)c2cc3sccc3n12` (stereo unspecified), the solubility in series [1] is over 1000 µM. This compound registered a logD in series [4] of -0.2. Further, the microsomal CLint is under 10 µL/min/mg in series [2], 50 µL/min/mg in series [5] and 40 µL/min/mg in series [13]. Also, in series [3], the Papp A→B was found to be 0.7 ×10⁻⁶ cm/s.

`CC(C)c1nn(CC(=O)Nc2cccnc2)c(=O)c2cc3sc(F)cc3n12` displayed a solubility in [1] of 251 µM (≈ 96.7 µg/mL). In addition, the logD in series [4] is 3.4. Further, the microsomal CLint is 79 µL/min/mg in [2] and 227 µL/min/mg in [5].

As for `CCc1nn(CC(=O)Nc2cccc(C(C)=O)c2)c(=O)c2cc3sccc3n12`, the concentration in solution in [1] (solubility) came to 4 µM (≈ 1.58 µg/mL). The microsomal CLint in series [2] is 299 µL/min/mg. In series [3], the Papp A→B was 41 ×10⁻⁶ cm/s. The IC50 in series [14] is over 100 µM.

`CC(C)(O)c1nn(CC(=O)Nc2cccnc2)c(=O)c2cc3sccc3n12` returned a solubility in series [1] of 23 µM (≈ 8.82 µg/mL). In series [4], this compound came in with a logD of 2.8. The microsomal CLint in [2] turned out to be 68 µL/min/mg; in series [5], 300 µL/min/mg.

As for `CCc1nn(CC(=O)Nc2ccncn2)c(=O)c2cc3sccc3n12`, the concentration in solution in series [1] (solubility) was 7 µM (≈ 2.48 µg/mL). Besides, the microsomal CLint in [2] was 69 µL/min/mg. Also, the Papp A→B in [3] came to 21 ×10⁻⁶ cm/s.

As to `CCc1nn(CC(=O)Nc2ccccc2)c(=O)c2cc3sccc3n12`, the solubility in series [1] was 2 µM (≈ 0.705 µg/mL). The microsomal CLint in [2] worked out at 269 µL/min/mg. Besides, the Papp A→B in series [3] is 25 ×10⁻⁶ cm/s.

Regarding `CCc1nn(CC(=O)N(C)c2ccccc2)c(=O)c2cc3sccc3n12`, the concentration in solution in [1] (solubility) was 6 µM (≈ 2.2 µg/mL). In addition, the microsomal CLint in series [2] was 971 µL/min/mg. The Papp A→B in series [3] was found to be 19 ×10⁻⁶ cm/s.

`CC(C)c1nn(CC(=O)Nc2cccnc2)c(=O)c2cc3sc(Cl)cc3n12` yielded a solubility in series [1] of 10 µM (≈ 4.02 µg/mL). The same compound gave a logD in [4] of 4. In addition, the microsomal CLint is 44 µL/min/mg in [2] and 124 µL/min/mg in series [5]. This compound also showed a clearance in series [9] of 16.5 mL/min/kg. Further, the bioavailability in series [10] stood at 55%. In series [11], the AUC(0-inf) was 3.75 µM·h.
